# Assays:
# Format in all cases: in vivo
# [1] = test system: barnyardgrass (Echinochloa crus-galli); assay: Test A preemergence soil spray, visual injury rating 0-100; details: 10 days
# In short: (§1)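 Seeds sown in loam-sand blend got a preemergence directed soil spray, or emerged plants (2-10 cm, one- to two-leaf) got a postemergence spray, of compound in non-phytotoxic solvent with surfactant. After 10 days in greenhouse, injury rated visually versus untreated controls on a 0 (no effect) to 100 (complete control) scale.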
# [2] = test system: kochia (Bassia scoparia); assay: as above; details: 10 days
# In short: as §1
# [3] = test system: corn (Zea mays); assay: as above; details: 10 days
# In short: as §1
# [4] = test system: oat, wild (wild oat, Avena fatua); assay: as above; details: 10 days
# In short: as §1
# [5] = test system: ragweed (common ragweed, Ambrosia artemisiifolia); assay: as above; details: 10 days
# In short: as §1
# [6] = test system: ryegrass, Italian (italian ryegrass, Lolium multiflorum); assay: as above; details: 10 days
# In short: as §1
# [7] = test system: palmer (palmer amaranth, palmer pigweed, Amaranthus palmeri); assay: as above; details: 10 days
# In short: as §1
# [8] = test system: wheat (Triticum aestivum); assay: as above; details: 10 days
# In short: as §1
# [9] = test system: soybean (Glycine max); assay: as above; details: 10 days
# In short: as §1
# [10] = test system: blackgrass (Alopecurus myosuroides); assay: as above; details: 10 days
# In short: as §1
# [11] = test system: green foxtail (Setaria viridis); assay: as above; details: 10 days
# In short: as §1
# [12] = test system: barnyardgrass (Echinochloa crusgalli); assay: Test B flooded paddy test, visual plant response rating 0-100; details: 250 g ai/ha, Flood, applied to paddy water, evaluated after 13 days
# In short: (§2)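 Visual scores versus untreated controls were recorded 13 days after treatment of greenhouse-held plants. At the 2-leaf stage, pots were flooded 3 cm above the soil surface and compounds added straight to the water.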
# [13] = test system: ducksalad (Heteranthera limosa); assay: as above; details: 250 g ai/ha, Flood, applied to paddy water, evaluated after 13 days
# In short: as §2
# [14] = test system: rice (Oryza sativa); assay: as above; details: 250 g ai/ha, Flood, applied to paddy water, evaluated after 13 days
# In short: as §2
# [15] = test system: sedge, umbrella (small-flower umbrella sedge, Cyperus difformis); assay: as above; details: 250 g ai/ha, Flood, applied to paddy water, evaluated after 13 days
# In short: as §2
# [16] = test system: barnyardgrass (Echinochloa crus-galli); assay: Test A postemergence application, visual injury rating 0-100
# In short: as §1
# [17] = test system: kochia (Bassia scoparia); assay: as above
# In short: as §1
# [18] = test system: corn (Zea mays); assay: as above
# In short: as §1
# [19] = test system: oat, wild (wild oat, Avena fatua); assay: as above
# In short: as §1
# [20] = test system: ragweed (common ragweed, Ambrosia artemisiifolia); assay: as above
# In short: as §1
# [21] = test system: ryegrass, Italian (italian ryegrass, Lolium multiflorum); assay: as above
# In short: as §1
# [22] = test system: palmer (palmer amaranth, palmer pigweed, Amaranthus palmeri); assay: as above
# In short: as §1
# [23] = test system: wheat (Triticum aestivum); assay: as above
# In short: as §1
# [24] = test system: horseweed (Erigeron canadensis); assay: as above
# In short: as §1
# [25] = test system: soybean (Glycine max); assay: as above
# In short: as §1
# [26] = test system: blackgrass (Alopecurus myosuroides); assay: as above
# In short: as §1
# [27] = test system: green foxtail (Setaria viridis); assay: as above
# In short: as §1
# [28] = test system: galium (catchweed bedstraw, Galium aparine); assay: as above
# In short: as §1
# [29] = 62 g ai/ha, 0 = no effect, 100 = complete control
# [30] = 62 g ai/ha, postemergence, 10 days, 0 = no effect, 100 = complete control
# [31] = Postemergence, 16 g ai/ha, greenhouse 10 days, 0 no effect, 100 complete control
smiles,measurement,setting,value
C=CC1(C(=O)NC2CC(C(=O)OC)C2)CN(c2cc(F)cc(F)c2)C(=O)O1 (stereo not shown) [Compound 172],Barnyardgrass plant response rating,"[1]; 16 g ai/ha, 0 to 100 scale",0
same,Barnyardgrass plant response rating (0-100),[1]; [29],90
same,Kochia plant response rating,"[2]; 16 g ai/ha, 0 to 100 scale",0
same,Kochia plant response rating (0-100),[2]; [29],100
same,Corn plant response rating,"[3]; 16 g ai/ha, 0 to 100 scale",80
same,Corn plant response rating (0-100),[3]; [29],90
same,"Oat, Wild plant response rating","[4]; 16 g ai/ha, 0 to 100 scale",30
same,"Oat, Wild plant response rating (0-100)",[4]; [29],90
same,Ragweed plant response rating,"[5]; 16 g ai/ha, 0 to 100 scale",0
same,Ragweed plant response rating (0-100),[5]; [29],0
same,"Ryegrass, Italian plant response rating","[6]; 16 g ai/ha, 0 to 100 scale",40
same,"Ryegrass, Italian plant response rating (0-100)",[6]; [29],90
same,"Pigweed, Palmer plant response rating","[7]; 16 g ai/ha, 0 to 100 scale",10
same,"Pigweed, Palmer plant response rating (0-100)",[7]; [29],60
same,Wheat plant response rating,"[8]; 16 g ai/ha, 0 to 100 scale",90
same,Wheat plant response rating (0-100),[8]; [29],100
same,Soybean plant response rating,"[9]; 16 g ai/ha, 0 to 100 scale",0
same,Soybean plant response rating (0-100),[9]; [29],70
same,Blackgrass plant response rating,"[10]; 16 g ai/ha, 0 to 100 scale",50
same,Blackgrass plant response rating (0-100),[10]; [29],90
same,"Foxtail, Green plant response rating","[11]; 16 g ai/ha, 0 to 100 scale",40
same,"Foxtail, Green plant response rating (0-100)",[11]; [29],100
same,"Plant response rating, Barnyardgrass (0 to 100 scale, 0 is no effect and 100 is complete control)",[12],95
same,"Plant response rating, Ducksalad (0 to 100 scale, 0 is no effect and 100 is complete control)",[13],80
same,"Plant response rating, Rice (0 to 100 scale, 0 is no effect and 100 is complete control)",[14],70
same,"Plant response rating, Sedge, Umbrella (0 to 100 scale, 0 is no effect and 100 is complete control)",[15],100
same,Barnyardgrass plant response rating (0-100),[16]; [30],90
same,Barnyardgrass plant response rating (0 to 100 scale),[16]; [31],80
same,Kochia plant response rating (0-100),[17]; [30],90
same,Kochia plant response rating (0 to 100 scale),[17]; [31],90
same,Corn plant response rating (0-100),[18]; [30],100
same,Corn plant response rating (0 to 100 scale),[18]; [31],100
same,"Oat, Wild plant response rating (0-100)",[19]; [30],90
same,"Oat, Wild plant response rating (0 to 100 scale)",[19]; [31],90
same,Ragweed plant response rating (0-100),[20]; [30],20
same,Ragweed plant response rating (0 to 100 scale),[20]; [31],10
same,"Ryegrass, Italian plant response rating (0-100)",[21]; [30],90
same,"Ryegrass, Italian plant response rating (0 to 100 scale)",[21]; [31],80
same,"Pigweed, Palmer plant response rating (0-100)",[22]; [30],60
same,"Pigweed, Palmer plant response rating (0 to 100 scale)",[22]; [31],10
same,Wheat plant response rating (0-100),[23]; [30],90
same,Wheat plant response rating (0 to 100 scale),[23]; [31],90
same,Horseweed plant response rating (0-100),[24]; [30],10
same,Horseweed plant response rating (0 to 100 scale),[24]; [31],0
same,Soybean plant response rating (0-100),[25]; [30],80
same,Soybean plant response rating (0 to 100 scale),[25]; [31],80
same,Blackgrass plant response rating (0-100),[26]; [30],90
same,Blackgrass plant response rating (0 to 100 scale),[26]; [31],90
same,"Foxtail, Green plant response rating (0-100)",[27]; [30],90
same,"Foxtail, Green plant response rating (0 to 100 scale)",[27]; [31],80
same,Galium plant response rating (0-100),[28]; [30],90
same,Galium plant response rating (0 to 100 scale),[28]; [31],90

# — patent publication US20260285850A1, “SUBSTITUTED OXAZOLIDINONES AND IMIDAZOLINONES AS HERBICIDES” (FMC CORPORATION, priority 2023, published 2026)
